Laboratory results as given in PubChem BioAssay (NCI).
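Five compound concentrations were applied to cells in 96-well plates for 48 hours; endpoints were derived by simple linear interpolation of the resulting dose-response curve. At the TGI there is no net growth.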

Experiments:
Assay in all cases: growth of human tumour cells (NCI), 48 h
OVCAR-3 ovarian = tested on: OVCAR-3 ovarian
MALME-3M melanoma = tested on: MALME-3M melanoma
NCI-H460 lung = tested on: NCI-H460 lung
HT29 colon = tested on: HT29 colon
SNB-19 CNS = tested on: SNB-19 CNS
UO-31 renal = tested on: UO-31 renal
SW-620 colon = tested on: SW-620 colon
MOLT-4 leukemia = tested on: MOLT-4 leukemia
NCI-H23 lung = tested on: NCI-H23 lung
OVCAR-8 ovarian = tested on: OVCAR-8 ovarian
SN12C renal = tested on: SN12C renal
SK-MEL-5 melanoma = tested on: SK-MEL-5 melanoma
OVCAR-4 ovarian = tested on: OVCAR-4 ovarian
SF-268 CNS = tested on: SF-268 CNS
SF-295 CNS = tested on: SF-295 CNS
PC-3 prostate = tested on: PC-3 prostate
T-47D breast = tested on: T-47D breast
MDA-MB-435 = tested on: MDA-MB-435
MDA-N = tested on: MDA-N

Row | SMILES | TGI (OVCAR-3 ovarian) | TGI (MALME-3M melanoma) | TGI (NCI-H460 lung) | TGI (HT29 colon) | TGI (SNB-19 CNS) | TGI (UO-31 renal) | TGI (SW-620 colon) | TGI (MOLT-4 leukemia) | TGI (NCI-H23 lung) | TGI (OVCAR-8 ovarian) | TGI (SN12C renal) | TGI (SK-MEL-5 melanoma) | TGI (OVCAR-4 ovarian) | TGI (SF-268 CNS) | TGI (SF-295 CNS) | TGI (PC-3 prostate) | TGI (T-47D breast) | TGI (MDA-MB-435) | TGI (MDA-N)
1 | O=C(NC12CC3CC(CC(F)(C3)C1)C2)c1ccccc1 | > 100 µM | > 100 µM | > 100 µM | > 100 µM | > 100 µM | > 100 µM | > 100 µM | > 100 µM | > 100 µM | > 100 µM |  |  |  |  |  |  |  |  | 
2 | NC(=O)COC(=O)c1c(Cl)nc2sccn12 | > 62.6 µM | > 100 µM | > 100 µM | > 100 µM | > 100 µM | > 100 µM | > 64.7 µM | > 100 µM | > 100 µM | > 100 µM | > 100 µM | > 100 µM | > 100 µM | > 100 µM | > 100 µM |  |  |  | 
3 | OC1(c2ccccc2)C2CCN(CC2)C1CN1CCOCC1 (centres undefined) | > 100 µM | > 100 µM | > 100 µM | > 100 µM | > 100 µM | > 100 µM | > 100 µM | > 100 µM | > 100 µM | > 100 µM | > 100 µM | > 100 µM | > 100 µM | > 100 µM | > 100 µM | > 100 µM | > 100 µM | > 100 µM | 
4 | COc1cc(/C=C2/SC(c3ccccc3)N(c3ccccc3Cl)C2=O)cc(OC)c1OC (centres undefined) | > 100 µM | 64.7 µM | > 100 µM |  | > 100 µM | > 100 µM | > 100 µM | 68.2 µM | 81.7 µM | > 100 µM | 46.6 µM | 33.6 µM | > 100 µM | > 100 µM | > 100 µM |  | > 100 µM | > 100 µM | 69.7 µM
5 | CCN(CC)CCn1nc(N)c2nc3ccccc3nc21 | > 100 µM | > 100 µM | > 100 µM | > 100 µM | > 100 µM | > 100 µM | > 100 µM | > 100 µM | > 100 µM | > 100 µM | > 100 µM |  | > 100 µM | > 100 µM | > 100 µM | > 100 µM |  | > 100 µM | > 100 µM
6 | O=C(CCN(C(=O)O)S(=O)(=O)c1ccc(NC(=O)c2ccccc2)cc1)NC1CCCCC1 | > 100 µM | > 100 µM | > 100 µM | 56.8 µM | > 100 µM | > 100 µM | 33.1 µM | 45.9 µM | > 100 µM | > 100 µM | > 100 µM | > 100 µM | > 100 µM | > 100 µM | > 100 µM |  |  |  | 
7 | Cc1ccc(/C(Cl)=C/C=C(C#N)C#N)cc1 | 3.91 µM | 16.1 µM | > 100 µM |  | 24 µM | > 100 µM | 3.71 µM | > 100 µM | 3.36 µM | 8.67 µM | 17.4 µM | 4.01 µM | 8.74 µM | 21.3 µM | 26.9 µM | > 100 µM | > 100 µM | 6.94 µM | 
